Experimental data taken from patent US20220347130A1, “ANTI-OBESITY COMPOSITION CONTAINING COLCHICINE AND METFORMIN AS EFFECTIVE AGENTS” (priority 2021, published 2022).
Read-outs that look alike come from different tables or passages of the source.

Legend:
[1] = Epididymal fat weight of HFD obesity-induced rats; type: in vivo; details: for weight of epididymal fat: colchicine 50, 100, 200 μg/kg and/or metformin 200 mg/kg, oral once a day, FIG. 3; for effect of reducing the fat of the obesity-induced rats: summary of the results
Method: Next, after the drugs were administered to the obesity-induced rats, the weights of epididymal fat were measured and the results thereof was illustrated in FIG. 3.

[2] = type: in vivo, rats; details: oral once a day; for blood levels of AST and ALT (in words): HFD obesity-induced rats, colchicine 50, 100, 200 μg/kg and/or metformin 200 mg/kg, Table 1; for ALT / AST: HFD rats, 12 weeks, blood
Method: Finally, after the drugs were administered to the obesity-induced rats, changes in blood levels of aspartate aminotransferase (AST) and alanine transaminase (ALT) were measured and illustrated in Table 1 below.

[3] = test system: SREBP-1c; experiment: Expression of obesity-related gene SREBP-1c in epididymal fat of obesity-induced rats; type: in vivo; details: epididymal fat of HFD obesity-induced rats; colchicine 50, 100, 200 μg/kg and/or metformin 200 mg/kg, oral once a day; FIG. 4
Method: (§1) Meanwhile, after the drugs were administered to the obesity-induced rats, the expression of obesity-related genes SREBP-1c and FAS was measured, and the results thereof were illustrated in FIGS. 4A and 4B.

[4] = test system: FAS (fatty acid synthase); experiment: Expression of obesity-related gene FAS in epididymal fat of obesity-induced rats; type: in vivo; details: epididymal fat of HFD obesity-induced rats; colchicine 50, 100, 200 μg/kg and/or metformin 200 mg/kg, oral once a day; FIG. 4
Method: as §1

[5] = HFD obesity-induced rats; colchicine 50, 100, 200 μg/kg and/or metformin 200 mg/kg, oral once a day; FIG. 1
Method: Low fat diet (LFD: containing 10 kcal % fat) or high fat diet (HFD: containing 60 kcal % fat) feed was taken autonomously for 12 weeks in 6-week-old C57BL/6J sp. male rats. The obesity-induced rats due to the intake of the HFD feed additionally took the HFD feed for 12 weeks and were administered with colchicine of 50, 100, and 200 μg/kg or metformin of 200 mg/kg alone or co-administered with the colchicine and the metformin. A control drug, Xenical (orlistat ingredient) was administered alone at 60 mg/kg. All drugs were orally administered once a day.
Changes in body weight of obesity-induced rats were measured according to single administration of colchicine or metformin and co-administration of colchicine and metformin, which were illustrated in FIG. 1.

SMILES	weight of epididymal fat [1]	effect of reducing the fat of the obesity-induced rats [1]	blood levels of AST and ALT (in words) [2]	ALT ([2]; colchicine 50 μg/kg)	AST ([2]; colchicine 50 μg/kg)	ALT ([2]; colchicine 100 μg/kg)	AST ([2]; colchicine 100 μg/kg)	ALT ([2]; colchicine 200 μg/kg)	AST ([2]; colchicine 200 μg/kg)	expression of SREBP-1c [3]	expression of FAS [4]	changes in body weight (increase in body weight induced by the HFD) [5]	ALT ([2]; orlistat 60 mg/kg)	AST ([2]; orlistat 60 mg/kg)	ALT ([2]; metformin 200 mg/kg)	AST ([2]; metformin 200 mg/kg)
COc1cc2c(c(OC)c1OC)-c1ccc(OC)c(=O)cc1[C@@H](NC(C)=O)CC2 [Colchicine, colchicine]	not changed	almost no effect	not changed	175.08 ± 2.78 U/L	372.26 ± 3.75 U/L	164.5 ± 2.11 U/L	346.91 ± 3.90 U/L	157.38 ± 3.3 U/L	309.24 ± 2.61 U/L	not changed	not changed	not changed	–	–	–	–
CCCCCCCCCCC[C@@H](C[C@@H]1OC(=O)[C@H]1CCCCCC)OC(=O)[C@H](CC(C)C)NC=O [Orlistat, orlistat]	–	–	–	–	–	–	–	–	–	–	–	–	175.20 ± 3.11 U/L	203.31 ± 3.72 U/L	–	–
CN(C)C(=N)N=C(N)N [Metformin, metformin]	slightly reduced	a slight effect	slightly reduced	–	–	–	–	–	–	slightly reduced	slightly reduced	slightly reduced	–	–	156.41 ± 2.77 U/L	284.37 ± 2.78 U/L
